# From patent US20230201290A1, “TGF-BETA INHIBITION, AGENTS AND COMPOSITION THEREFOR” (GMP BIOTECHNOLOGY LIMITED, priority 2020, published 2023)
# Legend:
# human PBMCs = test: Viability and proliferation of human PBMCs; type: cell-based
# Description: Cell viability was assessed following treatment of human PBMCs with trabedersen in vitro using the Trypan blue exclusion test. Freshly isolated, IL-2 activated PBMCs from healthy donors and HGG patients were incubated either without trabedersen or with 1, 5, 10 or 80 μM trabedersen for 2, 3, 6, 7, 14, and 21 day. […] There was no difference in cell viability between untreated and trabedersen treated cells.
# TGF-β2 secretion = TGF-β2 secretion in human tumor cell lines; type: cell-based; conditions: human HGG cell line A-172, 7 days, 10 trabedersen (unit not given)
# Description: The effect of trabedersen on TGF-β2 secretion was analyzed in cell lines of human HGG, human pancreatic carcinoma, malignant melanoma, colorectal carcinoma, and other tumors (prostate carcinoma, renal cell carcinoma, and non-small cell lung carcinoma). The TGF-β2 concentration in cell culture supernatants after treatment with trabedersen for 7 days was analyzed.
# The biological activity of truncated trabedersen, i.e. metabolites, in comparison to full-length trabedersen with respect to inhibition of TGF-β2 secretion was tested in the human HGG cell line A-172.
substance,measurement,setting,value
"cggcatgtct attttgta (antisense CGGCATGTCTATTTTGTA; chemistry not given here) [OT-101, synthetic antisense oligodeoxynucleotide against TGF-beta2]","PBMC proliferation, of untreated control cells","human PBMCs; 80 μM, 7 days",67%
same,effects on the viability of PBMCs,"human PBMCs; 1, 5, 10 or 80 μM, up to 21 day, Trypan blue",No relevant effects
same,Proliferation of PBMCs,"human PBMCs; 5, 10 or 50μM",within the range of variation
same,highest inhibitory effect on TGF-β2 secretion,TGF-β2 secretion,64%
